Measured values published in ChEMBL document CHEMBL3576842, “Selenium-containing chrysin and quercetin derivatives: attractive scaffolds for cancer therapy” (J Med Chem, 2015).
The source made the active and inactive calls. No cut-off for these calls is given here.

Experiments:
[1] = Antioxidant activity assessed as DPPH radical scavenging activity after 1 hr; type: physicochemical
[2] = Antioxidant activity assessed as glutathione peroxidase-like activity measured as time required to oxidize dithiothretol by 50% after addition of H2O2 at 3.24 umol; type: physicochemical
A-375 = assay: Cytotoxicity against human A375 cells assessed as cell growth inhibition after 72 hrs by MTT assay; type: functional, cell-based; settings: A-375, 72 h
HCT-15 = assay: Cytotoxicity against human HCT15 cells assessed as cell growth inhibition after 72 hrs by MTT assay; type: functional, cell-based; settings: HCT-15, 72 h
[3] = Cytotoxicity against human BxPC3 cells assessed as cell growth inhibition after 72 hrs by MTT assay; type: functional, cell-based; settings: BXPC-3, 72 h
MCF7 [4] = assay: Cytotoxicity against human MCF7 cells assessed as cell growth inhibition after 72 hrs by MTT assay; type: functional, cell-based; settings: MCF7, 72 h
[5] = Cytotoxicity against human MCF7/ADR cells assessed as cell growth inhibition after 72 hrs by MTT assay; type: functional, cell-based; settings: NCI/ADR-RES
A-431 [6] = assay: Cytotoxicity against human A431 cells assessed as cell growth inhibition after 72 hrs by MTT assay; type: functional, cell-based; settings: A-431, 72 h
A-431 [7] = assay: Cytotoxicity against cisplatin-resistant human A431 cells assessed as cell growth inhibition after 72 hrs by MTT assay; type: functional, cell-based; settings: A-431, 72 h
2008 = assay: Cytotoxicity against human 2008 cells assessed as cell growth inhibition after 72 hrs by MTT assay; type: functional, cell-based; settings: Homo sapiens, 2008, 72 h
[8] = Cytotoxicity against human C13 cells assessed as cell growth inhibition after 72 hrs by MTT assay; type: functional, cell-based; settings: C13, 72 h
NCI/ADR-RES [9] = assay: Resistance factor, ratio of IC50 for human MCF7/ADR cells to IC50 for human MCF7 cells; type: functional
A-431 [10] = assay: Resistance factor, ratio of IC50 for cisplatin-resistant human A431 cells to IC50 for human A431 cells; type: functional
C13 [11] = assay: Resistance factor, ratio of IC50 for cisplatin-resistant human C13 cells to IC50 for human 2008 cells; type: functional
HEK293 [12] = assay: Cytotoxicity against HEK293 cells assessed as cell growth inhibition after 72 hrs by MTT assay; type: cell-based; settings: Homo sapiens, HEK293, 72 h
HEK293 [13] = assay: Selectivity index, ratio of IC50 for HEK293 cells to IC50 for human A375 cells; type: functional
HEK293 [14] = assay: Selectivity index, ratio of IC50 for HEK293 cells to IC50 for human HCT15 cells; type: functional
HEK293 [15] = assay: Selectivity index, ratio of IC50 for HEK293 cells to IC50 for human BxPC3 cells; type: functional
HEK293 [16] = assay: Selectivity index, ratio of IC50 for HEK293 cells to IC50 for human MCF7 cells; type: functional
NCI/ADR-RES [17] = assay: Selectivity index, ratio of IC50 for HEK293 cells to IC50 for human MCF7/ADR cells; type: functional
HEK293 [18] = assay: Selectivity index, ratio of IC50 for HEK293 cells to IC50 for human A431 cells; type: functional
HEK293 [19] = assay: Selectivity index, ratio of IC50 for HEK293 cells to IC50 for cisplatin-resistant human A431 cells; type: functional
HEK293 [20] = assay: Selectivity index, ratio of IC50 for HEK293 cells to IC50 for human 2008 cells; type: functional
C13 [21] = assay: Selectivity index, ratio of IC50 for HEK293 cells to IC50 for human C13 cells; type: functional
MCF7 [22] = assay: Anticlonogenic activity against human MCF7 cells assessed as inhibition of clonogenic expansion after 6 hrs; type: functional, cell-based
MCF7 [23] = assay: Drug uptake in human MCF7 cells assessed as intracellular Se accumulation at 12.5 to 25 uM after 12 to 24 hrs by GF-AAS analysis; type: ADME, cell-based; settings: mcf7, 25 µM
[24] = molecular target: T1, Thioredoxin reductase (Homo sapiens) (UniProt Q16881+Q9NNW7+Q86VQ6); assay: Inhibition of thioredoxin reductase activity in human MCF7 cells at 20 uM after 24 hrs by DTNB reduction assay; type: cell-based
[25] = molecular target: T1, Thioredoxin reductase (Homo sapiens); assay: Increase in thioredoxin reductase activity in HEK293 cells at 0.0625 to 0.625 uM after 24 hrs by DTNB reduction assay; type: cell-based; design: scale not given: the % may be the effect or the level left
[26] = molecular target: T2, Glutathione reductase, mitochondrial (Homo sapiens) (UniProt P00390); assay: Effect on glutathione reductase activity in human MCF7 cells using GSSG as substrate at 1.25 to 20 uM after 24 hrs by spectrophotometric analysis; type: cell-based
T2 sequence (whole entry): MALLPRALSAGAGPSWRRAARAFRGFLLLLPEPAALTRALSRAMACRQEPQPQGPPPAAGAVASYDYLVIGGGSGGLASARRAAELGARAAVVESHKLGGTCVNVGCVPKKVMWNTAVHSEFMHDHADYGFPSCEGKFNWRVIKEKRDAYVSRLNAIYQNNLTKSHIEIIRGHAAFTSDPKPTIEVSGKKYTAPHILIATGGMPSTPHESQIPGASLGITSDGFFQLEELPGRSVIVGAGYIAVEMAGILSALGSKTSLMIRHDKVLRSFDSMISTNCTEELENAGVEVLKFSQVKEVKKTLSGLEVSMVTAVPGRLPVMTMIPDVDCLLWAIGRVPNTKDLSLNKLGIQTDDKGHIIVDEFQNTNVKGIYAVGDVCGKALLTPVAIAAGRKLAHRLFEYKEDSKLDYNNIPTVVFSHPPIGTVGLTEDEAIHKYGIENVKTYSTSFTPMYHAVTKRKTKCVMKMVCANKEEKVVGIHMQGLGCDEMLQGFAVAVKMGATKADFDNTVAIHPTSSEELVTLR

MCF7 [27] = assay: Effect on glutathione peroxidase activity in human MCF7 cells using tert-butyl hydroperoxide and GSH as substrate at 1.25 to 20 uM after 24 hrs by spectrophotometric analysis; type: cell-based
MCF7 [28] = assay: Decrease in total glutathione level in human MCF7 cells at IC50 after 48 hrs by spectrophotometric analysis; type: functional
MCF7 [29] = assay: Increase in oxidized glutathione level in human MCF7 cells at IC50 after 48 hrs by spectrophotometric analysis; type: functional
MCF7 [30] = assay: Decrease in total sulfhydryl gropus in human MCF7 cells at IC50 after 24 hrs by DTNB reduction assay; type: functional
MCF7 [31] = assay: Induction of apoptosis in human MCF7 cells assessed as brightly stained nuclei, chromatin condensation and fragmentation at IC50 after 48 hrs by Hoechst 33258/PI fluorescent staining analysis; type: functional, cell-based
MCF7 [32] = assay: Induction of apoptosis in human MCF7 cells assessed as caspase-3 activation using DEVD-AFC as substrate at IC50 after 48 hrs by spectrofluorimeter analysis; type: functional
MCF7 [33] = assay: Induction of apoptosis in human MCF7 cells assessed as decrease in mitochondrial membrane potential at IC50 after 48 hrs by flow cytometry; type: functional
MCF7 [34] = assay: Increase in oxidant species production in human MCF7 cells at 25 uM by CM-DCFDA based fluorescence plate reader analysis; type: functional, cell-based
[35] = Antioxidant activity assessed as DPPH radical scavenging activity at 1 mM after 1 hr; type: physicochemical; settings: 1000 µM
[36] = molecular target: T1, Thioredoxin reductase (Homo sapiens); assay: Inhibition of thioredoxin reductase activity in human MCF7 cells after 24 hrs by DTNB reduction assay; type: cell-based

Row | Structure (SMILES) | IC50 [1] | Time [2] | IC50 (A-375) | IC50 (HCT-15) | IC50 [3] | IC50 (MCF7 [4]) | IC50 [5] | IC50 (A-431 [6]) | IC50 (A-431 [7]) | IC50 2008 | IC50 [8] | Ratio IC50 (NCI/ADR-RES [9]) | Ratio IC50 (A-431 [10]) | IC50 (HEK293 [12]) | Ratio IC50 (HEK293 [13]) | Ratio IC50 (HEK293 [14]) | Ratio IC50 (HEK293 [15]) | Ratio IC50 (HEK293 [16]) | Ratio IC50 (NCI/ADR-RES [17]) | Ratio IC50 (HEK293 [18]) | also measured
1 | Oc1cc(O)c2c(=[Se])cc(-c3ccccc3)oc2c1 | 659000 nM | 3.62 min | 1090 nM | 3170 nM | 2310 nM | 2250 nM | 1960 nM | 1610 nM | 3180 nM | 2870 nM | 4040 nM | 0.9 | 2 | 8130 nM | 3.7 | 3.7 | 3.7 | 3.7 | 3.7 | 3.7 | Ratio IC50 (C13 [11]): 1.4; Ratio IC50 (HEK293 [19]): 3.7; Ratio IC50 (HEK293 [20]): 3.7; Ratio IC50 (C13 [21]): 3.7; inhibition (MCF7 [22]): Active; Drug uptake (MCF7 [23]): Active; inhibition [24]: 75%; Activity [25]: 35%; Activity [26]: inactive; Activity (MCF7 [27]): inactive; inhibition (INH) (MCF7 [28]): 60%; fold change (FC) (MCF7 [29]): 4; inhibition (INH) (MCF7 [30]): 60%; Activity (MCF7 [31]): Active; fold change (FC) (MCF7 [32]): 4; fold change (FC) (MCF7 [33]): 4; Activity (MCF7 [34]): Active
2 | COc1cc(O)c2c(=[Se])c(OC)c(-c3ccc(OC)c(OC)c3)oc2c1 | 74000 nM | 4.34 min | 2210 nM | 2230 nM | 2420 nM | 3080 nM | 3350 nM | 3110 nM | 3780 nM | 2090 nM | 2290 nM | 1.1 | 1.2 | 17300 nM | 5.1 | 5.1 | 5.1 | 5.1 | 5.1 | 5.1 | Activity [35]: 90.4%; Ratio IC50 (HEK293 [19]): 5.1; Ratio IC50 (HEK293 [20]): 5.1; Ratio IC50 (C13 [21]): 5.1; inhibition (MCF7 [22]): Active; Drug uptake (MCF7 [23]): Active; inhibition [36]: Active; Activity [25]: 35%; Activity [26]: inactive; Activity (MCF7 [27]): inactive; inhibition (MCF7 [28]): Active; inhibition (INH) (MCF7 [30]): 60%; Activity (MCF7 [31]): Active; fold change (FC) (MCF7 [32]): 4; fold change (FC) (MCF7 [33]): 4
